Like-named read-outs stand apart in the source and are kept apart here.
Columns and labels:
Type in all cases: in vivo
[1] = tested on: Leptosphaeria nodorum; assay: Leptosphaeria nodorum test (wheat)/preventive; details: Table C1
Protocol: (§1) Solvent: 49 parts by weight of N,N-dimethylacetamide Emulsifier: 1 part by weight of alkylaryl polyglycol ether To produce a suitable preparation of active compound, 1 part by weight of active compound or active compound combination is mixed with the stated amounts of solvent and emulsifier, and the concentrate is diluted with water to the desired concentration. To test for preventive activity, young plants are sprayed with the preparation of active compound or active compound combination at the stated rate of application. After the spray coating has been dried, the plants are sprayed with a spore suspension of Leptosphaeria nodorum.

[2] = tested on: Phakopsora pachyrhizi; assay: Phakopsora test (soybeans)/preventive; details: Phakopsora pachyrhizi, 168 h, read-out: Efficacy in % found; for pest or weed control at 0.5 ppm: application rate 0.5 ppm a.i.
[3] = tested on: Septoria tritici; assay: Septoria tritici-test (wheat)/preventive; details: Table F1
Protocol: as §1, with “Septoria tritici.” for “Leptosphaeria nodorum.”

[4] = tested on: Sphaerotheca fuliginea; assay: Sphaerotheca test (cucumbers)/preventive; details: Table G1
Protocol: (§2) Solvent: 24.5 parts by weight of acetone • 24.5 parts by weight of dimethylacetamide Emulsifier: 1 part by weight of alkylaryl polyglycol ether To produce a suitable preparation of active compound, 1 part by weight of active compound is mixed with the stated amounts of solvent and emulsifier, and the concentrate is diluted with water to the desired concentration. To test for preventive activity, young plants are sprayed with the preparation of active compound at the stated rate of application. After the spray coating has dried on, the plants are inoculated with an aqueous spore suspension of Sphaerotheca fuliginea.

[5] = tested on: Uromyces appendiculatus; assay: Uromyces test (beans)/preventive; details: Uromyces appendiculatus, 240 h, read-out: Efficacy in % found; for pest or weed control at 0.2 ppm: application rate 0.2 ppm a.i.
Protocol: (§3) Solvent: 24.5 parts by weight of acetone • 24.5 parts by weight of dimethylacetamide
(§4) Emulsifier: 1 part by weight of alkylaryl polyglycol ether
(§5) To produce a suitable preparation of active compound, 1 part by weight of active compound is mixed with the stated amounts of solvent and emulsifier, and the concentrate is diluted with water to the desired concentration.
(§6) To test for preventive activity, young plants are sprayed with the preparation of active compound at the stated rate of application. After the spray coating has dried on, the plants are inoculated with an aqueous spore suspension of the causal agent of bean rust (Uromyces appendiculatus) and then remain for 1 day in an incubation cabinet at approximately 20° C. and a relative atmospheric humidity of 100%.
The plants are then placed in a greenhouse at approximately 21° C. and a relative atmospheric humidity of approximately 90%.
The test is evaluated 10 days after the inoculation. 0% means an efficacy which corresponds to that of the untreated control, while an efficacy of 100% means that no disease is observed.

[6] = tested on: Venturia inaequalis; assay: Venturia test (apples)/preventive; details: Table I1
Protocol: as §2, with “application.” for “application. After the spray coating has dried on, the plants are inoculated with an aqueous spore suspension of Sphaerotheca fuliginea.”

[7] = tested on: Alternaria solani; assay: Alternaria test (tomatoes)/preventive
Protocol: as §3, §4, §5
as §6, with “Alternaria solani. The plants are” for “the causal agent of bean rust (Uromyces appendiculatus) and”, “placed” for “remain for 1 day”
The test is evaluated 3 days after the inoculation. 0% means an efficacy which corresponds to that of the untreated control while an efficacy of 100% means that no disease is observed.

[8] = tested on: Blumeria graminis f.sp. hordei; assay: Blumeria test (barley)/preventive; details: Table B1; application rate 160 ppm a.i.
Protocol: Solvent: 49 parts by weight of N,N-dimethylacetamide Emulsifier: 1 part by weight of alkylaryl polyglycol ether To produce a suitable preparation of active compound, 1 part by weight of active compound or active compound combination is mixed with the stated amounts of solvent and emulsifier, and the concentrate is diluted with water to the desired concentration. To test for preventive activity, young plants are sprayed with the preparation of active compound or active compound combination at the stated rate of application. After the spray coating has been dried, the plants are dusted with spores of Blumeria graminis f.sp. hordei.

[9] = tested on: Pyrenophora teres; assay: Pyrenophora teres-test (barley)/preventive; details: Table E1; application rate 160 ppm a.i.
Protocol: Solvent: 49 parts by weight of N,N-dimethylacetamide
as §4
To produce a suitable preparation of active compound, 1 part by weight of active compound or active compound combination is mixed with the stated amounts of solvent and emulsifier, and the concentrate is diluted with water to the desired concentration.
To test for preventive activity, young plants are sprayed with the preparation of active compound or active compound combination at the stated rate of application.
After the spray coating has been dried, the plants are sprayed with a spore suspension of Pyrenophora teres. The plants remain for 48 hours in an incubation cabinet at approximately 20° C. and a relative atmospheric humidity of approximately 100%.
The plants are placed in the greenhouse at a temperature of approximately 20° C. and a relative atmospheric humidity of approximately 80%.
The test is evaluated 8 days after the inoculation. 0% means an efficacy which corresponds to that of the untreated control, while an efficacy of 100% means that no disease is observed.

Cn1c(=O)c2sc3c(=O)n(C)c(=O)c3sc2c1=O [15.61, 2,6-dimethyl-1H,5H-[1,4]dithiino[2,3-c:5,6-c′]dipyrrole-1,3,5,7(2H,6H)-tetrone]
Efficacy in % found ([1]; application rate 800 ppm a.i.): 20% | pest or weed control at 100 ppm ([2]; Table D3, application rate 100 ppm a.i.): 8% | Efficacy in % found ([3]; application rate 800 ppm a.i.): 0% | Efficacy in % found ([4]; application rate 100 ppm a.i.): 69% | pest or weed control at 100 ppm ([5]; Table H3, application rate 100 ppm a.i.): 0% | Efficacy in % found ([6]; application rate 50 ppm a.i.): 84%

CCN(C)/C=N/c1cc(C)c(Oc2nc(Cl)c(Cl)s2)cc1C [(Ie)]
Efficacy in % found ([7]; Table A1, application rate 0.5 ppm a.i.): 0% | Efficacy in % found ([7]; Table A1, application rate 1 ppm a.i.): 16% | Efficacy in % found ([7]; Table A2, application rate 5 ppm a.i.): 0% | Efficacy in % found ([7]; Table A3, application rate 1 ppm a.i.): 52% | Efficacy in % found [8]: 50% | Efficacy in % found ([1]; application rate 80 ppm a.i.): 30% | Efficacy in % found ([1]; application rate 160 ppm a.i.): 50% | pest or weed control at 0.25 ppm ([2]; Table D1, application rate 0.25 ppm a.i.): 15% | pest or weed control at 0.5 ppm ([2]; Table D1): 35% | pest or weed control at 0.5 ppm ([2]; Table D2): 45% | pest or weed control at 0.5 ppm ([2]; Table D3): 40% | pest or weed control at 1 ppm ([2]; Table D3, application rate 1 ppm a.i.): 65% | Efficacy in % found [9]: 57% | Efficacy in % found ([3]; application rate 160 ppm a.i.): 0% | Efficacy in % found ([4]; application rate 0.5 ppm a.i.): 29% | Efficacy in % found ([4]; application rate 1 ppm a.i.): 29% | Efficacy in % found ([4]; application rate 1.25 ppm a.i.): 29% | pest or weed control at 0.25 ppm ([5]; Table H1, application rate 0.25 ppm a.i.): 50% | pest or weed control at 0.05 ppm ([5]; Table H2, application rate 0.05 ppm a.i.): 0% | pest or weed control at 0.1 ppm ([5]; Table H2, application rate 0.1 ppm a.i.): 0% | pest or weed control at 0.2 ppm ([5]; Table H2): 30% | pest or weed control at 0.2 ppm ([5]; Table H3): 11% | Efficacy in % found ([6]; application rate 0.25 ppm a.i.): 0% | Efficacy in % found ([6]; application rate 0.5 ppm a.i.): 0% | Efficacy in % found ([6]; application rate 1 ppm a.i.): 0%

— patent US9572343B2, “Active compound combinations” (BAYER CROPSCIENCE AG, priority 2012, dated 2017)
